Our source for the IC50 and inhibition values is patent US9828338B2, “Carbamate derivatives of lactam based N-acylethanolamine acid amidase (NAAA) inhibitors” (The Regents of the University of California, priority 2013, dated 2017).

The target in one assay is T1, r-NAAA (Rattus norvegicus, UniProt Q5KTC7).
T1 construct: Lysosomal NAAA protein preparation was obtained by homogenizing male Sprague-Dawley rat lungs; tissue Charles River (animals); host or cells: male Sprague-Dawley rat lung, soluble lysosomal fraction
T1 sequence (Q5KTC7 34-362): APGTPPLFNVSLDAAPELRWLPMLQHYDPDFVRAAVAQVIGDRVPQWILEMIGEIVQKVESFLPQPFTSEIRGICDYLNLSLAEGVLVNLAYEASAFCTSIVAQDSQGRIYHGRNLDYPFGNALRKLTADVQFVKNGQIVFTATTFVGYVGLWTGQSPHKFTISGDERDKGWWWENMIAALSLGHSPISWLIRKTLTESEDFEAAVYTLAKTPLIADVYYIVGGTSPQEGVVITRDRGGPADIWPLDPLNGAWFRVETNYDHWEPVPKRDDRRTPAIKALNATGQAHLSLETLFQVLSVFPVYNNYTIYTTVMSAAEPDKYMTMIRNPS
Nature of the assay: UPLC/MS r-NAAA assay. The class given is biochemical. How it is done: Lysosomal NAAA protein preparation was obtained by homogenizing male Sprague-Dawley rat lungs (Charles River) in 20 mM Tris-HCl buffer pH 7.4 containing 0.32M sucrose. […] Supernatants were then centrifuged at 12,000 xg for 30 min at 4° C. Pellets were then resuspended in PBS pH 7.4 and subjected to a freeze/thaw cycle at −80° C. The suspension was finally centrifuged at 105,000×g for 1 h at 4° C. The supernatant was then used in the enzymatic assay.
NAAA protein preparation was pre-incubated with various concentrations of test compounds or vehicle control in 100 mM NaH2PO4/Citrate buffer, 1% Triton-X, 3 mM DTT (pH 4.5) for 30 min at 37° C. Samples were then incubated with heptadecenoylethanolamide (50 μM, Avanti Polar Lipids) at 37° C. for 30 min. The reaction was terminated by addition of cold methanol containing heptadecanoic acid (NuCheck Prep) as internal standard. Samples were then analyzed by UPLC/MS (Acquity, Waters). […] The column temperature was 40° C. Electrospray ionization was in the negative mode, capillary voltage was 0.5 kV, cone voltage was […], desolvation temperature was 500° C. N2 was used as drying gas at a flow rate of 1000 L/hour and a temperature of 500° C. […] Calibration curves were generated using commercial heptadecenoic acid (NuCheck Prep) Inhibition of NAAA activity was calculated as reduction of heptadecenoic acid in the samples compared to vehicle controls. IC50 values were calculated by non-linear regression analysis of log [concentration]/inhibition curves using GraphPad Prism 5 (GraphPad Software Inc., CA—USA) applying a standard slope curve fitting.

Another assay has as its target T2, human NAAA (Homo sapiens, UniProt Q02083).
T2 construct: made in house; host or cells: HEK293 cells, stably transfected; soluble lysosomal fraction used as enzyme source
T2 sequence (Q02083 29-359): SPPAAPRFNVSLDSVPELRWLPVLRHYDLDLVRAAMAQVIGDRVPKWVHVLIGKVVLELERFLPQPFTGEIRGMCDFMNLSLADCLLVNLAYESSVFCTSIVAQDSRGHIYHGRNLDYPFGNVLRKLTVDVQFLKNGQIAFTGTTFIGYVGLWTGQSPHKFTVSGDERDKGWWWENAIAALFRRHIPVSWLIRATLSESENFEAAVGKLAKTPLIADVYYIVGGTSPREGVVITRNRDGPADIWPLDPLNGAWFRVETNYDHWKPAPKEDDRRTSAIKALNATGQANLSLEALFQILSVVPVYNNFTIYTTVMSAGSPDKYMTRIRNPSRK
Briefly: Fluorogenic h-NAAA assay. The class given is biochemical. To be noted: for inhibition at […]: @ 2.5 μM. How it is done: Hek293 cells stably transfected with the human NAAA coding sequence cloned from a human spleen cDNA library were used as enzyme source. Recombinant HEK-hNAAA pellets were resuspended in homogenizing buffer, and sonicated. Samples were centrifuged at 800×g for 15 min at 4° C. and the resultant supernatants were then ultracentrifuged at 12,000×g for 30 min at 4° C. The pellets were resuspended in PBS pH 7.4 on ice and subjected to a freeze/thaw cycle at −80° C. The suspension was finally centrifuged at 105,000×g for 1 h at 4° C. Protein concentration was measured and samples aliquoted and stored at −80° C. until use.
The assay was run in Optiplate 96-wells black plates, in a total reaction volume of 200 μL. NAAA protein preparation (4.0 μg) was pre-incubated for 10 min with various concentrations of test compounds or vehicle control (5% DMSO) in 100 mM citrate/phosphate buffer (pH 4.5) containing 3.0 mM DTT, 0.1% Triton X-100, 0.05% BSA, 150 mM NaCl. N-(4-methyl-2-oxo-chromen-7-yl)-hexadecanamide was used as a substrate (5.0 μM) and the reaction carried over for 30 min at 37° C. The samples were then read in a Perkin Elmer Envision plate reader using an excitation wavelength of 360 nm and emission 460 nm. IC50 values were calculated by non-linear regression analysis of log [concentration]/inhibition curves using GraphPad Prism 5 (GraphPad Software Inc., CA—USA) applying a standard slope curve fitting.

Where [1] appears, read: read-out: h-NAAA Fluorogenic assay % inhib.

One may read the IC50 as the concentration that inhibits the measured activity by half. A low value points to greater potency. Take `O=C(N[C@H]1CNC1=O)OCCCC1CCCC1` [Example 21, 3-Cyclopentylpropyl-N-[(3S)-2-oxoazetidin-3-yl]-carbamate]: the IC50 against r-NAAA was determined as 220 nM; on human NAAA it was 97 nM.

As to `CCCCC/C=C/CCOC(=O)N[C@H]1CNC1=O` [Example 9, [(E)-Non-3-enyl]-N-[(3S)-2-oxoazetidin-3-yl]-carbamate], the figures for the IC50 on r-NAAA and at human NAAA were 180 nM and 78 nM, respectively.

For `CCCCOc1ccc(COC(=O)N[C@H]2CNC2=O)cc1` [Example 63, (4-Butoxyphenyl)-methyl-N-[(3S)-2-oxoazetidin-3-yl]-carbamate], the IC50 turned out to be 240 nM at r-NAAA and 104 nM against human NAAA. For `O=C(N[C@H]1CNC1=O)OCc1ccc(C23CC4CC(CC(C4)C2)C3)cc1` [Example 58, [4-(1-Adamantyl)-phenyl]-methyl-N-[(3S)-2-oxoazetidin-3-yl]-carbamate] the same measures were 2700 nM and 2100 nM.

Regarding `O=C(N[C@H]1CNC1=O)OCc1ccc(C(=O)c2ccccc2)cc1` [Example 52, (4-Benzoylphenyl)-methyl-N-[(3S)-2-oxoazetidin-3-yl]-carbamate], the concentration for half-maximal inhibition (IC50) is 420 nM against r-NAAA and 639 nM against human NAAA. For the compound `O=C(N[C@H]1CNC1=O)OCc1ccc(Cc2ccccc2)cc1` [Example 34, (4-Benzylphenyl)-methyl-N-[(3S)-2-oxoazetidin-3-yl]-carbamate], the 50% inhibitory concentration (IC50) on r-NAAA was 300 nM; at human NAAA, 230 nM.

Consider `CCCCC1CCC(OC(=O)N[C@H]2CNC2=O)CC1` (mixture of isomers) [Example 61, (1s,4R) and (1r,4S)-(4-Butylcyclohexyl)-N-[(3S)-2-oxoazetidin-3-yl]-carbamate], for which the concentration for half-maximal inhibition (IC50) is 700 nM at r-NAAA and 323 nM against human NAAA. The matching figures for `CCCCCCCCCCOC(=O)N[C@H]1CNC1=O` [Example 30, Decyl-N-[(3S)-2-oxoazetidin-3-yl]-carbamate]: 55 nM and 25 nM. The matching figures for `O=C(N[C@H]1CNC1=O)OCCCCc1ccccc1` [Example 13, 4-Phenylbutyl-N-[(3S)-2-oxoazetidin-3-yl]-carbamate]: 2430 nM and 930 nM. As for `COc1ccc(CCCCOC(=O)N[C@H]2CNC2=O)cc1` [Example 22, 4-(4-Methoxyphenyl)-butyl-N-[(3S)-2-oxoazetidin-3-yl]-carbamate], the values for the IC50 on r-NAAA and against human NAAA were 790 nM and 573 nM, respectively.

In the case of `CCCCCCCCCOC(=O)N[C@H]1CNC1=O` [Example 25, Nonyl-N-[(3S)-2-oxoazetidin-3-yl]-carbamate], the IC50 came to 40 nM against r-NAAA and 17 nM on human NAAA. On to `C[C@@H]1NC(=O)[C@@H]1NC(=O)OCc1ccc(C2CCCCC2)cc1` [Example 85, (4-Cyclohexylphenyl)-methyl-N-[(2S,3R)-2-methyl-4-oxo-azetidin-3-yl]-carbamate], for which the concentration for half-maximal inhibition (IC50) on human NAAA is 619 nM. That is a sub-micromolar value.

For `Cc1ccc(COC(=O)N[C@H]2CNC2=O)cc1` [Example 94, p-Tolylmethyl-N-[(3S)-2-oxoazetidin-3-yl]-carbamate], the IC50 on human NAAA turned out to be 1230 nM.

With `O=C(N[C@H]1CNC1=O)OCc1ccc(C2CC3CCC2C3)cc1` (mixture of isomers) [Example 56, [4-(1R,2R,4S)- and (1S,2S,4R)-Norbornan-2-yl-phenyl)]-methyl-N-[(3S)-2-oxoazetidin-3-yl]-carbamate], the IC50 against r-NAAA came to 16 nM; against human NAAA, 39 nM. Consider `O=C(N[C@H]1CNC1=O)OCCCCc1cccnc1` [Example 47, 4-(3-Pyridyl)-butyl-N-[(3S)-2-oxoazetidin-3-yl]-carbamate], for which the inhibition at 50 µM at human NAAA (@ 50 μM, read-out: h-NAAA Fluorogenic assay % inhib.) worked out at 55%. Regarding `O=C(N[C@H]1CNC1=O)OCc1ccc(-c2ccccc2)nc1` [Example 67, (6-Phenyl-3-pyridyl)-methyl-N-[(3S)-2-oxoazetidin-3-yl]-carbamate], the inhibition at […] on human NAAA (setting [1]) came out at 60%.

As for `CCCCC/C=C\CCOC(=O)N[C@H]1CNC1=O` [Example 10, [(Z)-Non-3-enyl]-N-[(3S)-2-oxoazetidin-3-yl]-carbamate], the IC50 on r-NAAA was 250 nM; against human NAAA it was 76 nM. In the case of `O=C(N[C@H]1CNC1=O)OCc1ccc(OC2CC3CCC2C3)cc1` (mixture of isomers) [Example 102, 4-[(1R,2R,4S)- and (1S,2S,4R)-Norbornan-2-yl]-oxyphenyl]-methyl-N-[(3S)-2-oxoazetidin-3-yl]-carbamate], the inhibition at […] at human NAAA (setting [1]) was found to be 95%.
